# Data: US20220202943A1, “TOPICAL COMPOSITIONS FOR SKIN COMPRISING A CELL PENETRATING PEPTIDE AND METHODS OF USING THE SAME” (ImDerma Laboratories Co. Ltd., priority 2020, published 2022)
# Where no end group is shown, it is not given here.
# Tests used:
# Assay type in all cases: cell-based, human
# [1] = system: HaCaT cells; assay: Cell viability of HaCaT cells, MTT assay; settings: 1.0 μM peptide X
# Protocol: (§1) Following the removal of DMEM medium in the 96-well plate, 100 uL of 1 μM peptide X and 100 uL of tea polyphenols (0.01%, 0.05% or 0.1%), were added in the 96-well plate. After 2, 4, 6, 16 or 24 hours of reaction, the peptide X and tea polyphenols were removed and then DMEM medium with 1.2 mM H2O2 was added for 2 hours of reaction in dark to induce intracellular ROS in the HaCaT cells. After the above reaction, DMEM medium with 1.2 mM H2O2 was removed from the 96-well plate and 100 μL of 10 μM DCFDA (2′,7′—dichlorofluorescin diacetate) was added for half an hour of reaction to measure the levels of intracellular ROS in HaCaT cells using fluorescence assay. Following the removal of DCFDA, the treated cells were washed with 200 μL of PBS. Subsequently, after PBS was removed, 100 μL of transparent DMEM medium was added and absorbance at 488/520 nm was measured to determinate the levels of intracellular ROS. After the above measurement, the transparent DMEM medium was removed and then 100 μL of 1 mg/mL MTT was added for 2 hours of reaction; subsequently, the absorbance at 595 nm was measured for calculating the cell viability.
# EUK134™ (0.12 μM, 0.23 μM or 2.35 μM) or a mixture of peptide X (1 μM) and EUK134™ (0.12 μM or 0.23 μM), were added in HaCaT cells for 8 hours of reaction. […]
# [2] = system: type I pro-collagen; assay: Type I pro-collagen level in Hs68 cells, ELISA; settings: TGF-β 10 ng/mL
# Protocol: In order to confirm if the peptide X is capable of delivering TGF-β into skin cells, Hs68 cells were seeded in a 6-well plate. Following the removal the medium in the 6-well plate, TGF-β (10 ng/mL), peptide X (1.0 μM) or a mixture of TGF-β (10 ng/mL) and peptide X (1.0 μM) were added in the 6-well plate. After 6, 12 or 24 hours of reaction, the level of type I pro-collagen in the cells was confirmed using ELISA kit with human pro-collagen 1 alpha 1 capture antibody and human pro-collagen 1 alpha 1 detector antibody.
# [3] = system: HaCaT cells; assay: Intracellular ROS induced by H2O2 in HaCaT cells, DCFDA fluorescence assay
# Protocol: as §1
# EUK134™ (0.12 μM, 0.23 μM or 2.35 μM) or a mixture of peptide X (1 μM) and EUK134™ (0.12 μM or 0.23 μM), were added in HaCaT cells for 8 hours of reaction. Following the removal of EUK134™ and the mixture of peptide X and EUK134™, 1.2 mM H2O2 was added to induce intracellular ROS in the HaCaT cells and then the levels of intracellular ROS were detected using DCFDA. After the detection of the levels of intracellular ROS, the cell viability was confirmed using MTT assay.
# Resveratrol (6.25 μM, 12.5 μM or 25 μM) or a mixture of peptide X (1 μM) and resveratrol (6.25 μM, 12.5 μM or 25 μM), were added in HaCaT cells for different time of reaction. Following the removal of resveratrol and the mixture of peptide X and resveratrol, 1.2 mM H2O2 was added to induce intracellular ROS in the HaCaT cells and then the levels of intracellular ROS were detected using DCFDA. After the detection of the levels of intracellular ROS, the cell viability was confirmed using MTT assay.
compound,measurement,setting,value
"NYRWRCKNQN [peptide X, Asn-Tyr-Arg-Trp-Arg-Cys-Lys-Asn-Gln-Asn]",cytotoxicity to HaCaT cells,[1],no cytotoxicity
TGF-β,increase of expression of type I pro-collagen,[2],~20%
"Oc1ccc(/C=C/c2cc(O)cc(O)c2)cc1 [resveratrol, reference compound]",reduction of level of intracellular ROS induced by H2O2,"[3]; resveratrol 6.25, 12.5 or 25 μM without peptide X, no significant difference among concentrations",75˜80%
ethylbisiminomethylguaiacol manganese chloride [EUK134™],reduction of level of intracellular ROS induced by H2O2,"[3]; 0.12 μM EUK134 without peptide X, 8 hours of treatment",50%
same,reduction of level of intracellular ROS,"[3]; 0.23 μM EUK134 without peptide X, 8 hours of treatment",50%
same,level of intracellular ROS induced by H2O2,"[3]; EUK134 0.12, 0.23 or 2.35 μM without peptide X, with the increase of concentration, 8 hours",slightly decreased
